In ChEMBL document CHEMBL5576134, “Targeting Pancreatic Cancer with Novel Nicolaioidesin C Derivatives: Molecular Mechanism, In Vitro, and In Vivo Evaluations” (J Med Chem, 2024):

What was measured:
[1] = Selectivity index, ratio of IC50 for preferential cytotoxicity against human PANC-1 cells in DMEM to PC50 for preferential cytotoxicity against human PANC-1 cells in nutrient-deprived medium; format: functional
[2] = system: PANC-1; assay: Preferential cytotoxicity against human PANC-1 cells in DMEM measured after 24 hrs by WST-8 cell counting analysis; format: functional, cell-based; conditions: PANC-1, 24 h
[3] = system: PANC-1; assay: Preferential cytotoxicity against human PANC-1 cells in nutrient-deprived medium measured after 24 hrs by WST-8 cell counting analysis; format: functional
[4] = system: MIA PaCa-2; assay: Preferential cytotoxicity against human MIA PaCa-2 cells in nutrient-deprived medium measured after 24 hrs by WST-8 cell counting analysis; format: functional
[5] = system: MIA PaCa-2; assay: Preferential cytotoxicity against human MIA PaCa-2 cells in DMEM measured after 24 hrs by WST-8 cell counting analysis; format: functional, cell-based; conditions: MIA PaCa-2, 24 h
[6] = Selectivity index, ratio of IC50 for preferential cytotoxicity against human MIA PaCa-2 cells in DMEM to PC50 for preferential cytotoxicity against human MIA PaCa-2 cells in nutrient-deprived medium; format: functional

SMILES	Selectivity Index [1]	IC50 [2] [µM]	PC50 [3] [µM]	PC50 [4] [µM]	IC50 [5] [µM]	Selectivity Index [6]
COc1cc(O)c(C(=O)[C@H]2CC=C(CCC=C(C)C)C[C@@H]2c2cc(F)cc(F)c2)c(O)c1	18.6	13.5	0.73	0.79	17.9	22.6
COc1cc(O)c(C(=O)[C@H]2CC=C(CCC=C(C)C)C[C@@H]2c2ccccc2)c(O)c1	46.3	25.3	0.55	2.76	61.4	22.3
COc1cccc(O)c1C(=O)[C@H]1CC=C(CCC=C(C)C)C[C@@H]1c1ccccc1	10.3	33.9	3.3	31.8	> 100	
CC(C)=CCCC1=CC[C@H](C(=O)c2c(O)cccc2O)[C@@H](c2cc(F)ccc2F)C1 (relative stereo)	21.1	11.2	0.53	0.77	20.8	26.9
CC(C)=CCCC1=CC[C@H](C(=O)c2c(O)cccc2O)[C@@H](c2ccc(F)cc2F)C1 (relative stereo)	26.1	7.18	0.27	0.34	11.1	32.6
COc1cc(O)c(C(=O)[C@H]2CC=C(CCC=C(C)C)C[C@@H]2c2cccc(F)c2F)c(O)c1 (relative stereo)	38	24.4	0.64	1.01	33.8	33.4
CC(C)=CCCC1=CC[C@H](C(=O)c2c(O)cccc2O)[C@@H](c2ccccc2F)C1 (relative stereo)	29.5	13.8	0.47	0.84	25	29.6
COc1cc(O)c(C(=O)[C@H]2CC=C(CCC=C(C)C)C[C@@H]2c2ccc(C)cc2)c(O)c1 (relative stereo)		> 100	0.56	3.65	93.3	25.5
CC(C)=CCCC1=CC[C@H](C(=O)c2c(O)cccc2O)[C@@H](c2ccc(F)c(F)c2)C1 (relative stereo)	33.5	11	0.33	0.68	23.1	33.8
COc1cccc(OC)c1C(=O)[C@H]1CC=C(CCC=C(C)C)C[C@@H]1c1ccccc1 (relative stereo)	24.1	40	1.66	13.6	> 100	
CC(C)=CCCC1=CC[C@H](C(=O)c2c(O)cccc2O)[C@@H](c2cccc(Cl)c2)C1 (relative stereo)	17.4	14.8	0.85	1.09	29.1	26.8
CC(C)=CCCC1=CC[C@H](C(=O)c2c(O)cccc2O)[C@@H](c2ccc(Cl)cc2Cl)C1 (relative stereo)	23.5	10	0.43	0.78	22.2	28.6
COc1cc(O)c(C(=O)[C@H]2CC=C(CCC=C(C)C)C[C@@H]2c2ccc(F)cc2F)c(O)c1 (relative stereo)	21.6	21	0.97	0.63	20.2	32
COc1ccc([C@H]2CC(CCC=C(C)C)=CC[C@@H]2C(=O)c2c(O)cccc2O)cc1 (relative stereo)	52.8	56.7	1.08	4.73	> 100	
COc1cc(O)c(C(=O)[C@H]2CC=C(CCC=C(C)C)C[C@@H]2c2cccc(F)c2)c(O)c1 (relative stereo)	25.6	29.6	1.16	1.21	39.9	32.9
CC(C)=CCCC1=CC[C@H](C(=O)c2c(O)cccc2O)[C@@H](c2cc(F)cc(F)c2)C1 (relative stereo)	31.6	10.5	0.33	0.75	19.7	26.2
CC(C)=CCCC1=CC[C@H](C(=O)c2c(O)cccc2O)[C@@H](c2ccccc2Cl)C1 (relative stereo)	22.2	15.4	0.69	1.08	29	26.7
COc1cc(O)c(C(=O)[C@H]2CC=C(CCC=C(C)C)C[C@@H]2c2ccc(Cl)cc2)c(O)c1 (relative stereo)	94.5	39.1	0.41	3.02	71.9	23.8
CC(C)=CCCC1=CC[C@H](C(=O)c2c(O)cccc2O)[C@@H](c2ccc(Cl)cc2)C1 (relative stereo)	126.8	86	0.68	1.3	32.6	25
CC(C)=CCCC1=CC[C@H](C(=O)c2c(O)cccc2O)[C@@H](c2cccc(F)c2)C1 (relative stereo)	11.2	16	1.43	1.23	30.8	25.1
COc1cc(O)c(C(=O)[C@H]2CC=C(CCC=C(C)C)C[C@@H]2c2ccc(F)cc2)c(O)c1 (relative stereo)		> 100	0.39	1.01	> 100	
CC(C)=CCCC1=CC[C@H](C(=O)c2c(O)cccc2O)[C@@H](c2ccc(F)cc2)C1 (relative stereo)		> 100	0.37	0.89	34.4	38.6
COc1cc(O)c(C(=O)[C@H]2CC=C(CCC=C(C)C)C[C@@H]2c2ccccc2F)c(O)c1 (relative stereo)	39.3	28.5	0.72	0.85	33.7	39.6
CC(C)=CCCC1=CC[C@H](C(=O)c2c(O)cccc2O)[C@@H](c2cccc(Cl)c2Cl)C1 (relative stereo)	23.5	10.5	0.45	0.62	20.3	32.9
COc1ccc([C@H]2CC(CCC=C(C)C)=CC[C@@H]2C(=O)c2c(O)cc(OC)cc2O)cc1 (relative stereo)	110	50	0.45	1.93	102	52.9
CC(C)=CCCC1=CC[C@H](C(=O)c2c(O)cccc2O)[C@@H](c2ccccc2)C1 (relative stereo)	117	47.2	0.4	1.79	58.2	32.5
COc1ccc(C(=O)[C@H]2CC=C(CCC=C(C)C)C[C@@H]2c2ccccc2)c(O)c1 (relative stereo)	3.3	24.2	7.32	59.3	> 100	
